{
  "source": "patent US10266558B2",
  "about": "“Macroheterocyclic nucleoside derivatives and their analogues, production and use thereof” (ASAVI, LLC, priority 2016, dated 2019)",
  "key": {"[1]": {"tested_on": "HBV wild-type", "conditions": "cited from earlier work"}, "[2]": {"tested_on": "lamivudine-entecavir resistant clone (L180M+M204V+S202G)", "conditions": "resistant mutant (L180M+M204V+S202G); cited from earlier work"}, "[3]": {"assay": "Metabolic stability in human liver S9 fraction", "assay_type": "in vitro ADME", "conditions": "pH 7.4", "method": "The human liver S9 fraction metabolic stability in human liver microsomal fraction of Macroheterocyclic nucleoside derivative represented by formula 1 and 2 and Sovaldi. Stock solutions of test compounds and PSI-352707 (10 mM) were prepared in DMSO and stored at −20° C. 10-× standard solutions of PSI-352707 (10, 8, 5, 2 and 1 μM) were prepared by dilution stock solution with water-acetonitrile mixture (1/1, v/v). The reaction mixture was prepared in a total volume of 350.5 μL containing 0.1 M potassium phosphate buffer (pH 7.4), 1 mM NADPH, 7 mM G6P, 1.5 U/mL G6PDH, 3.3 mM MgCl2, 5 mM UDPGA, 122 μLdeionised water and 1 μM test compound. The reaction mixture was pre-incubated at 400 rpm, 37° C. The reaction was initiated by adding 1 mg/mL human liver S9 fraction to the reaction mixture and incubated at 400 rpm, 37° C. […]\nABSciex QTrap 5500 Source (TurboIonSpray) was operated in negative ionization mode (Source temperature 650° C., Source gas 1 and Source gas 2-65 and 40 psi respectively). PSI-352707 and IS (tolbutamide) were detected in MRM mode by transitions with m/z 410 to 150 for H027-4261 (collision energy […]) and 269/170 for tolbutamide (collision energy […]). […] Data analysis and quantitation was performed in Analyst 1.5.2 Software (AB Sciex)."}, "[4]": {"assay": "physchem", "conditions": "simulated gi fluid"}, "[5]": {"target": "T1, HCV NS5B RNA-polymerase (Hepatitis C virus genotype 1a, UniProt P27958)", "T1 construct": "HCV NS5B RNA-polymerase", "T1 sequence (P27958 2421-3011)": "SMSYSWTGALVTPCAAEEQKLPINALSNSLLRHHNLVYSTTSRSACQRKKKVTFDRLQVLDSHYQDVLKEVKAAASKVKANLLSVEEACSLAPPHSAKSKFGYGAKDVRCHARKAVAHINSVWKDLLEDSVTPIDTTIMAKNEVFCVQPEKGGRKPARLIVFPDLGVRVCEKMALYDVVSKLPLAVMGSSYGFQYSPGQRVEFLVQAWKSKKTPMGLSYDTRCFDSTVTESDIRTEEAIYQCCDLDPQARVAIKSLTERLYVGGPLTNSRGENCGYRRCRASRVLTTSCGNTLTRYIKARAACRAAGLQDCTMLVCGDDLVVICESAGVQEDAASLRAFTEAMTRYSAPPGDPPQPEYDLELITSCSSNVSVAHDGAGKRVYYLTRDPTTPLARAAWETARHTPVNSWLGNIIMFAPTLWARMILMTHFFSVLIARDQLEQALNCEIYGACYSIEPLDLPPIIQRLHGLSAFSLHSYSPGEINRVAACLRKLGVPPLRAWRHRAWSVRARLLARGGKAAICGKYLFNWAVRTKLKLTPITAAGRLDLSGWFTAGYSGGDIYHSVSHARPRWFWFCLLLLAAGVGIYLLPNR", "conditions": "versus PSI-6206, Gemcitabine and 2′-C-Methylcytidine; cited from earlier work"}, "[6]": {"tested_on": "HCV replicon", "conditions": "cited from earlier work"}, "[7]": {"conditions": "in the clinic; cited from earlier work"}, "[8]": {"tested_on": "xenografts models of human pancreatic cancer", "conditions": "in vivo; cited from earlier work"}},
  "data": [
    {"molecule": "2′-Fluoro-6′-methylene-carbocyclic adenosine phosphoramidate [5′-phosphoramidate of FMCA]", "values": [
      {"measurement": "EC50", "setting": "[1]; HBV replication, wild-type", "value": 620, "unit": "nM"},
      {"measurement": "more potent than FMCA", "setting": "[1]; against both the wild-type and resistant mutant", "value": 10, "unit": "fold"},
      {"measurement": "EC50", "setting": "[2]", "value": 54, "unit": "nM"}
    ]},
    {"molecule": "C[C@@H]1N[P@@](=O)(Oc2ccccc2)OC[C@H]2O[C@@H](n3ccc(=O)[nH]c3=O)[C@](C)(F)[C@@H]2OC(=O)CCCOC1=O", "note": "[1(13)]", "values": [
      {"measurement": "half-life at 1 μM", "setting": "[3]", "value": "> 12.4", "unit": "h"},
      {"measurement": "half-life", "setting": "[4]", "value": "> 24", "unit": "h"}
    ]},
    {"molecule": "CC(C)OC(=O)[C@H](C)NP(=O)(OC[C@H]1O[C@@H](n2ccc(N)nc2=O)C(F)(F)[C@@H]1O)Oc1ccccc1", "note": "(some centres unmarked) [AVI-4201]", "values": [
      {"measurement": "inhibitory activity compared with the corresponding nucleoside", "setting": "[5]", "value": "by orders of magnitude higher"}
    ]},
    {"molecule": "Nc1ccn([C@@H]2O[C@H](COP(=O)(N[C@H]3CCOC3=O)Oc3ccccc3)[C@@H](O)C2(F)F)c(=O)n1", "note": "(some centres unmarked) [AVI-4203]", "values": [
      {"measurement": "inhibitory activity compared with the corresponding nucleoside", "setting": "[5]", "value": "by orders of magnitude higher"}
    ]},
    {"molecule": "CC(C)OC(=O)[C@H](C)NP(=O)(OC[C@H]1O[C@@H](n2ccc(NO)nc2=O)[C@](C)(O)[C@@H]1O)Oc1ccccc1", "note": "(some centres unmarked) [CC-1845]", "values": [
      {"measurement": "inhibitory activity compared with the corresponding nucleoside", "setting": "[5]", "value": "by orders of magnitude higher"}
    ]},
    {"molecule": "CC(C)(CO)C(=O)SCCOP(=O)(COC[C@H]1OC(n2cnc3c(=O)[nH]c(N)nc32)[C@](C)(O)[C@@H]1O)NCc1ccccc1", "note": "(some centres unmarked) [IDX-184]", "values": [
      {"measurement": "EC50", "setting": "[6]", "value": 400, "unit": "nM"}
    ]},
    {"molecule": "COc1nc(N)nc2c1ncn2[C@@H]1O[C@H](COP(=O)(N[C@@H](C)C(=O)OCC(C)(C)C)Oc2cccc3ccccc23)[C@@H](O)[C@@]1(C)O", "note": "(some centres unmarked) [INX-08189]", "values": [
      {"measurement": "EC50", "setting": "[6]", "value": 10, "unit": "nM"},
      {"measurement": "cardiovascular toxicity", "setting": "[7]", "value": "severe cardiovascular toxicity"}
    ]},
    {"molecule": "C[C@H](NP(=O)(OC[C@H]1O[C@@H](n2ccc(N)nc2=O)C(F)(F)[C@@H]1O)Oc1ccccc1)C(=O)OCc1ccccc1", "note": "(some centres unmarked) [NUC-1031, Gemcitabin-5′-phosphoramidate]", "values": [
      {"measurement": "tumor volume", "setting": "[8]", "value": "significantly reduced tumor volume"}
    ]},
    {"molecule": "COc1nc(N)nc2c1ncn2[C@@H]1O[C@H](COP(=O)(N[C@@H](C)C(=O)OC(C)C)Oc2ccccc2)[C@@H](O)[C@@]1(C)F", "note": "(some centres unmarked) [PSI-353661]", "values": [
      {"measurement": "EC90", "setting": "[6]; replicon assay", "value": 8, "unit": "nM"},
      {"measurement": "increase in potency compared to the guanosine analogue β-D-2′-deoxy-2′-R-fluoro-2′-β-C-methylguanosine", "setting": "[6]; replicon assay", "value": 1000, "unit": "fold"}
    ]},
    {"molecule": "CC(C)OC(=O)[C@H](C)N[P@](=O)(OC[C@H]1O[C@@H](n2ccc(=O)[nH]c2=O)[C@](C)(F)[C@@H]1O)Oc1ccccc1", "note": "[Sovaldi®, sofosbuvir]", "values": [
      {"measurement": "half-life at 1 μM", "setting": "[3]", "value": "> 1.8", "unit": "h"},
      {"measurement": "inhibitory activity compared with the corresponding nucleoside", "setting": "[5]", "value": "by orders of magnitude higher"},
      {"measurement": "half-life", "setting": "[4]", "value": 15, "unit": "h"}
    ]}
  ]
}
